Results published in ChEMBL document CHEMBL1201862, “PubChem BioAssay data set” (2004).
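Values below derive from 48-hour exposures of cells grown in 96-well plates, with endpoints linearly interpolated between the two concentrations bracketing the appropriate inhibition level. GI50 = concentration required for 50% inhibition of growth.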 The source made the active and inactive calls. Rule as the data show it: active = GI50 up to about 1.1 µM and inactive = higher.

How the values were obtained:
Test in all cases: NCI anticancer screen, dose series, 48 h
HOP-62 = tested on: HOP-62
UACC-257 = tested on: UACC-257
OVCAR-4 = tested on: OVCAR-4
RPMI-8226 = tested on: RPMI-8226
U-251 = tested on: U-251
CCRF-CEM = tested on: CCRF-CEM
A498 = tested on: A498
M14 = tested on: M14
MCF7 = tested on: MCF7
MOLT-4 = tested on: MOLT-4
IGROV-1 = tested on: IGROV-1
PC-3 = tested on: PC-3
RXF 393 = tested on: RXF 393
NCI-H522 = tested on: NCI-H522
UO-31 = tested on: UO-31
786-0 = tested on: 786-0
NCI/ADR-RES = tested on: NCI/ADR-RES
A549 = tested on: A549
SK-MEL-28 = tested on: SK-MEL-28
SR = tested on: SR
SF-268 = tested on: SF-268
NCI-H23 = tested on: NCI-H23
MDA-N = tested on: MDA-N
T47D = tested on: T47D
DU-145 = tested on: DU-145
HCT-116 = tested on: HCT-116
COLO 205 = tested on: COLO 205
SF-539 = tested on: SF-539
HCT-15 = tested on: HCT-15
MDA-MB-435 = tested on: MDA-MB-435
NCI-H460 = tested on: NCI-H460
SF-295 = tested on: SF-295
SNB-75 = tested on: SNB-75
SNB-19 = tested on: SNB-19
BT-549 = tested on: BT-549
EKVX = tested on: EKVX
OVCAR-3 = tested on: OVCAR-3
K562 = tested on: K562
UACC-62 = tested on: UACC-62
CAKI-1 = tested on: CAKI-1
SK-MEL-2 = tested on: SK-MEL-2
MDA-MB-231 = tested on: MDA-MB-231
ACHN = tested on: ACHN
Malme-3M = tested on: Malme-3M
SW-620 = tested on: SW-620
OVCAR-5 = tested on: OVCAR-5
OVCAR-8 = tested on: OVCAR-8
HOP-92 = tested on: HOP-92
SK-OV-3 = tested on: SK-OV-3
HCC 2998 = tested on: HCC 2998
NCI-H226 = tested on: NCI-H226
KM12 = tested on: KM12
LOX IMVI = tested on: LOX IMVI
HL-60 = tested on: HL-60
HT-29 = tested on: HT-29
TK-10 = tested on: TK-10
SK-MEL-5 = tested on: SK-MEL-5
Hs-578T = tested on: Hs-578T
SN12C = tested on: SN12C

## S=C(Nc1ccc(Br)cn1)NC12CC3CC(CC(C3)C1)C2
HOP-62
  GI50: 23.9 µM (inactive)
UACC-257
  GI50: 25.1 µM (inactive)
OVCAR-4
  GI50: 17.1 µM (inactive)
RPMI-8226
  GI50: 65.2 µM (inactive)
U-251
  GI50: 11.3 µM (inactive)
CCRF-CEM
  GI50: 25.4 µM (inactive)
A498
  GI50: 33 µM (inactive)
M14
  GI50: 46 µM (inactive)
MCF7
  GI50: 26.3 µM (inactive)
MOLT-4
  GI50: 25.8 µM (inactive)
IGROV-1
  GI50: 8.59 µM (inactive)
PC-3
  GI50: 17 µM (inactive)
RXF 393
  GI50: 15.2 µM (inactive)
NCI-H522
  GI50: 11.2 µM (inactive)
UO-31
  GI50: 28.3 µM (inactive)
786-0
  GI50: 8.05 µM (inactive)
NCI/ADR-RES
  GI50: 17.4 µM (inactive)
A549
  GI50: 16.2 µM (inactive)
SK-MEL-28
  GI50: 39 µM (inactive)
SR
  GI50: 36.1 µM (inactive)
SF-268
  GI50: 11.4 µM (inactive)
NCI-H23
  GI50: 15.3 µM (inactive)
MDA-N
  GI50: 15.8 µM (inactive)
T47D
  GI50: 49.1 µM (inactive)
DU-145
  GI50: 41.2 µM (inactive)
HCT-116
  GI50: 10.7 µM (inactive)
COLO 205
  GI50: 62.2 µM (inactive)
SF-539
  GI50: 10.1 µM (inactive)
HCT-15
  GI50: 68.7 µM
MDA-MB-435
  GI50: 92.9 µM (inactive)
NCI-H460
  GI50: 28.5 µM (inactive)
SF-295
  GI50: 17 µM (inactive)
SNB-75
  GI50: 13.9 µM (inactive)
SNB-19
  GI50: 11 µM (inactive)
BT-549
  GI50: > 10 µM (inactive)
EKVX
  GI50: 18.5 µM (inactive)
OVCAR-3
  GI50: 46.3 µM (inactive)
K562
  GI50: > 100 µM (inactive)
UACC-62
  GI50: 17.5 µM (inactive)
CAKI-1
  GI50: 35.9 µM (inactive)
SK-MEL-2
  GI50: 22.3 µM (inactive)
MDA-MB-231
  GI50: 17.8 µM (inactive)
ACHN
  GI50: 13.2 µM (inactive)
Malme-3M
  GI50: 21.7 µM (inactive)
SW-620
  GI50: 49.2 µM (inactive)
OVCAR-5
  GI50: 17.5 µM (inactive)
OVCAR-8
  GI50: 7.57 µM (inactive)
HOP-92
  GI50: 7.18 µM (inactive)
SK-OV-3
  GI50: 23.1 µM (inactive)
HCC 2998
  GI50: 19.4 µM (inactive)
NCI-H226
  GI50: 20.5 µM (inactive)
KM12
  GI50: > 100 µM (inactive)

## CCOP(=O)(OCC)C1CC(n2cc(C)c(=O)[nH]c2=O)OC1CO (stereo unspecified)
HOP-62
  GI50: > 100 µM (inactive)
UACC-257
  GI50: > 100 µM (inactive)
OVCAR-4
  GI50: > 100 µM (inactive)
RPMI-8226
  GI50: > 100 µM (inactive)
U-251
  GI50: > 100 µM (inactive)
CCRF-CEM
  GI50: > 100 µM (inactive)
LOX IMVI
  GI50: > 100 µM (inactive)
A498
  GI50: > 100 µM (inactive)
M14
  GI50: > 100 µM (inactive)
MCF7
  GI50: > 100 µM (inactive)
MOLT-4
  GI50: > 100 µM (inactive)
IGROV-1
  GI50: > 100 µM (inactive)
PC-3
  GI50: > 100 µM (inactive)
RXF 393
  GI50: > 100 µM (inactive)
NCI-H522
  GI50: 83.8 µM (inactive)
UO-31
  GI50: > 100 µM (inactive)
786-0
  GI50: > 100 µM (inactive)
A549
  GI50: > 100 µM (inactive)
SK-MEL-28
  GI50: > 100 µM (inactive)
SR
  GI50: > 100 µM (inactive)
SF-268
  GI50: > 100 µM (inactive)
HL-60
  GI50: > 100 µM (inactive)
NCI-H23
  GI50: 99.1 µM (inactive)
MDA-N
  GI50: > 100 µM (inactive)
T47D
  GI50: > 100 µM (inactive)
DU-145
  GI50: > 100 µM (inactive)
HCT-116
  GI50: > 100 µM (inactive)
SF-539
  GI50: > 100 µM (inactive)
HCT-15
  GI50: > 100 µM
NCI-H460
  GI50: > 100 µM (inactive)
SF-295
  GI50: > 100 µM (inactive)
SNB-75
  GI50: > 100 µM (inactive)
SNB-19
  GI50: > 100 µM (inactive)
BT-549
  GI50: > 100 µM (inactive)
OVCAR-3
  GI50: > 100 µM (inactive)
K562
  GI50: > 100 µM (inactive)
HT-29
  GI50: > 100 µM (inactive)
UACC-62
  GI50: > 100 µM (inactive)
CAKI-1
  GI50: > 100 µM (inactive)
SK-MEL-2
  GI50: > 100 µM (inactive)
MDA-MB-231
  GI50: > 100 µM (inactive)
TK-10
  GI50: > 100 µM (inactive)
SK-MEL-5
  GI50: > 100 µM (inactive)
Hs-578T
  GI50: > 100 µM (inactive)
ACHN
  GI50: > 100 µM (inactive)
Malme-3M
  GI50: > 100 µM (inactive)
SW-620
  GI50: > 100 µM (inactive)
SN12C
  GI50: > 100 µM (inactive)
OVCAR-5
  GI50: 83.4 µM (inactive)
OVCAR-8
  GI50: > 100 µM (inactive)
HOP-92
  GI50: > 100 µM (inactive)
HCC 2998
  GI50: > 100 µM (inactive)
NCI-H226
  GI50: > 100 µM (inactive)
KM12
  GI50: > 100 µM (inactive)
